According to patent US11053204B2, “Pyrimidinyloxy benzene derivatives as herbicides” (FMC Corporation, priority 2015, dated 2021):

What was measured:
Assay type in all cases: in vivo
[1] = system: ducksalad (Heteranthera limosa); assay: Test B flooded paddy test, plant response rating; conditions: 250 g ai/ha; Flood; scale of 0 to 100 where 0 is no effect and 100 is complete control; 13 to 15 days
Procedure, shortened: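 Visual injury ratings against untreated controls, taken 13 to 15 days after compound was added to paddy water standing 3 cm above the soil.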

[2] = system: pigweed (Amaranthus retroflexus); assay: Test A preemergence, visual injury rating
Procedure, shortened: (§1)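 Scoring: eye-based comparison with untreated controls, 0 for no effect through 100 for complete control, at about day 10. Treatments: directed soil spray preemergence; foliar spray postemergence on 2–10 cm plants at the one- to two-leaf stage. Medium: loam soil with sand.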

[3] = system: Italian ryegrass (Lolium multiflorum); assay: Test A preemergence, visual injury rating
Procedure, shortened: as §1

[4] = system: barnyardgrass (Echinochloa crus-galli); assay: Test A preemergence, visual injury rating; conditions: for Plant response rating, Barnyardgrass: 31 g ai/ha, 0 to 100 scale, 0 no effect, 100 complete control; for Barnyardgrass plant response rating: 125 g ai/ha, 0 to 100 scale (0 no effect, 100 complete control)
Procedure, shortened: as §1

[5] = system: ragweed (common ragweed, Ambrosia elatior); assay: Test A preemergence, visual injury rating
Procedure, shortened: as §1

kochia (Kochia scoparia) [6] = assay: Test A preemergence, visual injury rating
Procedure, shortened: as §1

[7] = system: giant foxtail (Setaria faberii); assay: Test A preemergence, visual injury rating
Procedure, shortened: as §1

[8] = system: morningglory (Ipomoea coccinea); assay: Test C postemergence, plant response rating; conditions: for Morningglory plant response rating: scale 0 to 100 (0 no effect, 100 complete control)
Procedure, shortened: (§2)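 Pre-emergence: seeds sown in loam soil–sand blend or silt loam and sprayed with test chemicals in a non-phytotoxic solvent mixture with surfactant. Post-emergence: plants 2 to 18 cm (1- to 4-leaf stage) in peat-based potting medium, same formulation. Greenhouse 13 to 15 d; visual rating 0 (no effect) to 100 (complete control) versus controls.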

[9] = system: velvetleaf (Abutilon theophrasti); assay: Test C postemergence, plant response rating; conditions: for Velvetleaf plant response rating: 125 g ai/ha, scale 0 to 100 (0 no effect, 100 complete control)
Procedure, shortened: as §2

[10] = system: nutsedge, yellow (yellow nutsedge, Cyperus esculentus); assay: Test C postemergence, plant response rating; conditions: for Nutsedge, Yellow plant response rating: scale 0 to 100 (0 no effect, 100 complete control)
Procedure, shortened: as §2

[11] = system: oat, wild (wild oat Avena fatua); assay: Test C postemergence, plant response rating; conditions: for Oat, Wild plant response rating: scale 0 to 100 (0 no effect, 100 complete control)
Procedure, shortened: as §2

[12] = system: crabgrass, large (large crabgrass, Digitaria sanguinalis); assay: Test C postemergence, plant response rating; conditions: for Crabgrass, Large plant response rating: scale 0 to 100 (0 no effect, 100 complete control)
Procedure, shortened: as §2

[13] = system: barnyardgrass (Echinochloa crus-galli); assay: Test C postemergence, plant response rating; conditions: for Plant response rating, Barnyardgrass: scale 0 to 100; for Barnyardgrass plant response rating: scale 0 to 100 (0 no effect, 100 complete control)
Procedure, shortened: as §2

[14] = system: ragweed (common ragweed, Ambrosia elatior); assay: Test C postemergence, plant response rating; conditions: for Ragweed plant response rating: scale 0 to 100 (0 no effect, 100 complete control)
Procedure, shortened: as §2

[15] = system: lambsquarters (Chenopodium album); assay: Test C postemergence, plant response rating; conditions: for Lambsquarters plant response rating: scale 0 to 100 (0 no effect, 100 complete control)
Procedure, shortened: as §2

kochia (Kochia scoparia) [16] = assay: Test C postemergence, plant response rating; conditions: for Kochia plant response rating: scale 0 to 100 (0 no effect, 100 complete control)
Procedure, shortened: as §2

corn (Zea mays) = assay: Test C postemergence, plant response rating; conditions: for Corn plant response rating: scale 0 to 100 (0 no effect, 100 complete control)
Procedure, shortened: as §2

[17] = 31 g ai/ha, 0 to 100 scale, 0 no effect, 100 complete control
[18] = 125 g ai/ha, 0 to 100 scale (0 no effect, 100 complete control)

SMILES: O=C(CCC(F)(F)F)c1c(Br)cccc1Oc1ncc(Cl)cn1 [Compound 92]
- Plant response rating, Ducksalad [1]: 100
- Plant response rating, Pigweed [2, 17]: 100
- Pigweed plant response rating [2, 18]: 100
- Plant response rating, Ryegrass, Italian [3, 17]: 30
- Ryegrass, Italian plant response rating [3, 18]: 80
- Plant response rating, Barnyardgrass [4]: 70
- Barnyardgrass plant response rating [4]: 100
- Plant response rating, Ragweed [5, 17]: 0
- Ragweed plant response rating [5, 18]: 0
- Plant response rating, Kochia (kochia (Kochia scoparia) [6]; [17]): 90
- Kochia plant response rating (kochia (Kochia scoparia) [6]; [18]): 90
- Plant response rating, Foxtail, Giant [7, 17]: 100
- Foxtail, Giant plant response rating [7, 18]: 100
- Plant response rating, Morningglory ([8]; 16 g ai/ha, scale of 0 to 100): 20
- Plant response rating, Morningglory ([8]; 31 g ai/ha, scale 0 to 100): 85
- Morningglory plant response rating ([8]; 62 g ai/ha): 65
- Morningglory plant response rating ([8]; 125 g ai/ha): 85
- Plant response rating, Velvetleaf ([9]; 16 g ai/ha, scale of 0 to 100): 35
- Plant response rating, Velvetleaf ([9]; 31 g ai/ha, scale 0 to 100): 50
- Velvetleaf plant response rating [9]: 85
- Plant response rating, Nutsedge, Yellow ([10]; 16 g ai/ha, scale of 0 to 100): 0
- Plant response rating, Nutsedge, Yellow ([10]; 31 g ai/ha, scale 0 to 100): 10
- Nutsedge, Yellow plant response rating ([10]; 62 g ai/ha): 10
- Nutsedge, Yellow plant response rating ([10]; 125 g ai/ha): 20
- Plant response rating, Oat, Wild ([11]; 16 g ai/ha, scale of 0 to 100): 5
- Plant response rating, Oat, Wild ([11]; 31 g ai/ha, scale 0 to 100): 5
- Oat, Wild plant response rating ([11]; 62 g ai/ha): 5
- Oat, Wild plant response rating ([11]; 125 g ai/ha): 5
- Plant response rating, Crabgrass, Large ([12]; 16 g ai/ha, scale of 0 to 100): 20
- Plant response rating, Crabgrass, Large ([12]; 31 g ai/ha, scale 0 to 100): 10
- Crabgrass, Large plant response rating ([12]; 62 g ai/ha): 25
- Crabgrass, Large plant response rating ([12]; 125 g ai/ha): 35
- Plant response rating, Barnyardgrass ([13]; 16 g ai/ha): 10
- Plant response rating, Barnyardgrass ([13]; 31 g ai/ha): 10
- Barnyardgrass plant response rating ([13]; 62 g ai/ha): 15
- Barnyardgrass plant response rating ([13]; 125 g ai/ha): 20
- Plant response rating, Ragweed ([14]; 16 g ai/ha, scale of 0 to 100): 35
- Plant response rating, Ragweed ([14]; 31 g ai/ha, scale 0 to 100): 40
- Ragweed plant response rating ([14]; 62 g ai/ha): 60
- Ragweed plant response rating ([14]; 125 g ai/ha): 70
- Plant response rating, Lambsquarters ([15]; 16 g ai/ha, scale of 0 to 100): 40
- Plant response rating, Lambsquarters ([15]; 31 g ai/ha, scale 0 to 100): 60
- Lambsquarters plant response rating ([15]; 62 g ai/ha): 50
- Lambsquarters plant response rating ([15]; 125 g ai/ha): 85
- Plant response rating, Kochia (kochia (Kochia scoparia) [16]; 16 g ai/ha, scale of 0 to 100): 100
- Plant response rating, Kochia (kochia (Kochia scoparia) [16]; 31 g ai/ha, scale 0 to 100): 100
- Kochia plant response rating (kochia (Kochia scoparia) [16]; 62 g ai/ha): 100
- Kochia plant response rating (kochia (Kochia scoparia) [16]; 125 g ai/ha): 100
- Plant response rating, Corn (corn (Zea mays); 16 g ai/ha, scale of 0 to 100): 10
- Plant response rating, Corn (corn (Zea mays); 31 g ai/ha, scale 0 to 100): 20
- Corn plant response rating (corn (Zea mays); 62 g ai/ha): 15
- Corn plant response rating (corn (Zea mays); 125 g ai/ha): 20

SMILES: O=C(CCC(F)(F)C(F)(F)F)c1c(Br)cccc1Oc1ncc(Cl)cn1 [Compound 110]
- Plant response rating, Ducksalad [1]: 75
- Plant response rating, Pigweed [2, 17]: 40
- Plant response rating, Pigweed [2, 18]: 100
- Plant response rating, Ryegrass, Italian [3, 17]: 0
- Plant response rating, Ryegrass, Italian [3, 18]: 70
- Plant response rating, Barnyardgrass [4]: 40
- Barnyardgrass plant response rating [4]: 100
- Plant response rating, Ragweed [5, 17]: 0
- Plant response rating, Ragweed [5, 18]: 0
- Plant response rating, Kochia (kochia (Kochia scoparia) [6]; [17]): 10
- Plant response rating, Kochia (kochia (Kochia scoparia) [6]; [18]): 100
- Plant response rating, Foxtail, Giant [7, 17]: 80
- Plant response rating, Foxtail, Giant [7, 18]: 100
- Plant response rating, Morningglory ([8]; 16 g ai/ha, scale of 0 to 100): 30
- Plant response rating, Morningglory ([8]; 31 g ai/ha, scale 0 to 100): 50
- Morningglory plant response rating ([8]; 62 g ai/ha): 60
- Morningglory plant response rating ([8]; 125 g ai/ha): 50
- Plant response rating, Velvetleaf ([9]; 16 g ai/ha, scale of 0 to 100): 50
- Plant response rating, Velvetleaf ([9]; 31 g ai/ha, scale 0 to 100): 40
- Velvetleaf plant response rating [9]: 75
- Plant response rating, Nutsedge, Yellow ([10]; 16 g ai/ha, scale of 0 to 100): 0
- Plant response rating, Nutsedge, Yellow ([10]; 31 g ai/ha, scale 0 to 100): 5
- Nutsedge, Yellow plant response rating ([10]; 62 g ai/ha): 5
- Nutsedge, Yellow plant response rating ([10]; 125 g ai/ha): 5
- Plant response rating, Oat, Wild ([11]; 16 g ai/ha, scale of 0 to 100): 20
- Plant response rating, Oat, Wild ([11]; 31 g ai/ha, scale 0 to 100): 30
- Oat, Wild plant response rating ([11]; 62 g ai/ha): 45
- Oat, Wild plant response rating ([11]; 125 g ai/ha): 55
- Plant response rating, Crabgrass, Large ([12]; 16 g ai/ha, scale of 0 to 100): 10
- Plant response rating, Crabgrass, Large ([12]; 31 g ai/ha, scale 0 to 100): 20
- Crabgrass, Large plant response rating ([12]; 62 g ai/ha): 25
- Crabgrass, Large plant response rating ([12]; 125 g ai/ha): 60
- Plant response rating, Barnyardgrass ([13]; 16 g ai/ha): 10
- Plant response rating, Barnyardgrass ([13]; 31 g ai/ha): 10
- Barnyardgrass plant response rating ([13]; 62 g ai/ha): 20
- Barnyardgrass plant response rating ([13]; 125 g ai/ha): 30
- Plant response rating, Ragweed ([14]; 16 g ai/ha, scale of 0 to 100): 40
- Plant response rating, Ragweed ([14]; 31 g ai/ha, scale 0 to 100): 50
- Ragweed plant response rating ([14]; 62 g ai/ha): 60
- Ragweed plant response rating ([14]; 125 g ai/ha): 60
- Plant response rating, Lambsquarters ([15]; 16 g ai/ha, scale of 0 to 100): 75
- Plant response rating, Lambsquarters ([15]; 31 g ai/ha, scale 0 to 100): 90
- Lambsquarters plant response rating ([15]; 62 g ai/ha): 95
- Lambsquarters plant response rating ([15]; 125 g ai/ha): 98
- Plant response rating, Kochia (kochia (Kochia scoparia) [16]; 16 g ai/ha, scale of 0 to 100): 95
- Plant response rating, Kochia (kochia (Kochia scoparia) [16]; 31 g ai/ha, scale 0 to 100): 100
- Kochia plant response rating (kochia (Kochia scoparia) [16]; 62 g ai/ha): 100
- Kochia plant response rating (kochia (Kochia scoparia) [16]; 125 g ai/ha): 100
- Plant response rating, Corn (corn (Zea mays); 16 g ai/ha, scale of 0 to 100): 10
- Plant response rating, Corn (corn (Zea mays); 31 g ai/ha, scale 0 to 100): 20
- Corn plant response rating (corn (Zea mays); 62 g ai/ha): 20
- Corn plant response rating (corn (Zea mays); 125 g ai/ha): 15
